Laboratory results: publication PMC11583597, “Brain uptake pharmacokinetics of albiglutide, dulaglutide, tirzepatide, and DA5-CH in the search for new treatments of Alzheimer’s and Parkinson’s diseases” (Tissue Barriers, 2023)
Read-outs that look alike come from different tables or passages of the source. Marks after values point to notes of the source that are not given here.

What was measured:
[1] = parameters: species or system male CD-1 mice; conditions: mouse, in vivo, iv
From the text: This value is then multiplied by the %Inj/ml of each ^125I/^14C-IRA at each time point. After plotting the %Inj/g at each time point for each IRA, we calculated the area under the curve (AUC) to better identify the amount of brain exposure to each IRA over the entire time course.

[2] = Brain influx and initial volume of distribution (multiple-time regression analysis); parameters: species or system male CD-1 mice; conditions: mouse, in vivo; for Blood to Brain Unidirectional Influx Rate (Ki): iv
Procedure: (§1) Following anesthetization, the jugular vein and right carotid artery were exposed. Mice were given a jugular vein injection of 0.2 ml BSA-LR containing 3 × 10^5 cpm-1×10^6 cpm of an ^125I/^14C-labeled IRA and 5 × 10^5 cpm of ^99mTc-Alb. Blood samples were collected from the carotid artery at various time points from 1 to 60 min after iv injection (see Figure 1). Mice were then decapitated, and their brains were removed and weighed. After clotting, the arterial blood was centrifuged at 3200 ×g for 10 min. Levels of radioactivity in serum (50 μl) and brain were measured in a gamma counter for ^125I and ^99mTc for 3 min. After ^99mTc decay, ^14C-DA5-CH samples were solubilized with Solvable (Sigma), transferred to scintillation vials containing Ecoscint (National Diagnostics) and ^14C was measured in a beta counter. Sample injection checks were taken throughout the course of the study to calculate the mean injected cpm/mouse. To determine the rate of ^125I/^14C-IRA clearance from the serum, the results were expressed as the percentage of an injected dose in each ml of serum (%Inj/ml), which was calculated by dividing the cpm in a ml of serum (cpm/ml serum) by the cpm injected into the mouse (cpm/Inj):
To calculate the blood-to-brain unidirectional influx constant (Ki), multiple-time regression analysis was used as first described by Patlak, Blasberg, and Fenstermacher.[67],[68] The brain/serum (B/S) ratios (μl/g) of the ^125I/^14C-IRA in each gram of brain were calculated from the data in Section 2.6 and plotted against their respective exposure times as previously applied by Rhea et al. 2018.[69] Exposure time differs from clock time in that exposure time corrects for clearance of the ^125I/^14C-IRA from blood and thus, better represents the amount of ^125I/^14C-IRA available for BBB transport at any given time. Delta B/S ratios were calculated by subtracting the vascular space as measured by the B/S ratio for ^99mTc-Alb from the B/S ratio for the respective ^125I/^14C-IRA. Thus, delta B/S ratios represent material that has been taken up by or has crossed the BBB. The slope of the linear portion of the relation between delta B/S ratios and exposure time defines Ki (μl/g-min) and is reported with its error term. This represents Model 1 for DA5-CH. The y-intercept of this linear portion of the relation defines Vi, (μl/g), the initial volume of distribution in brain at t = 0, which is the functional volume per unit brain mass of a soluble compound that exchanges rapidly and reversibly with plasma.[68] Vi consists of the vascular space (Vv) and any residual space after accounting for Vv and usually represents vascular binding (Vr). Since we correct each ^125I/^14C-IRA delta B/S for vascular space, our y-intercept values likely represent vascular binding. For DA5-CH, there appeared to be rapid, early transport that would indicate a Vr equal to 0. Therefore, using Vr equal to 0, we calculated an estimate of this new Ki and refer to it throughout the manuscript as Model 2.

[3] = mouse, in vivo, iv
Procedure: The capillary depletion method was used to separate cerebral capillaries from brain parenchyma. Anesthetized mice received an iv injection of 3 × 10^5-1×10^6 cpm of an ^125I-IRA with 5 × 10^5 cpm ^99mTc-Alb BSA-LR and 15 min later, blood and brains were collected. Whole brains were homogenized with physiological buffer (10 mM HEPES, 141 mM NaCl, 4 mM KCl, 2.8 mM CaCl2, 1 mM MgSO4, 1 mM NaH2PO4, and 10 mM D-glucose adjusted to pH 7.4) using two different sized glass dounce homogenizers, mixed with 26% dextran (Sigma-Aldrich), and centrifuged at 5400 ×g for 15 min at 4°C.[69] The pellet, containing the capillaries, and the supernatant, containing the brain parenchymal/interstitial fluid space, were carefully separated. The ratio of ^125I-IRA radioactivity in the supernatant (parenchyma) was corrected for vascular space by subtracting the B/S ratio of ^99mTc-Alb in the supernatant. The corrected parenchyma/serum and capillary/serum ratios (μl/g) were calculated as (cpm/g tissue)/(cpm/μl) serum.

[4] = parameters: species or system male CD-1 mice; conditions: mouse, in vivo, iv; remark: listed apart in the source
Procedure: Anesthetized mice were co-injected iv with 3 × 10^5 cpm-1×10^6 cpm ^125I/^14C-IRA and 5 × 10^5 cpm of ^99mTc-Alb in 0.2 ml BSA-LR with or without 1 μg of the non-radioactive IRA. Fifteen minutes after iv injection, blood was collected from the right carotid artery, and the whole brain was removed and weighed. Samples were counted for radioactivity. Results were expressed as delta B/S ratios in units of μl/g.

[5] = In vivo stability of 125I/14C-IRAs in brain (acid precipitation); parameters: species or system male CD-1 mice; conditions: mouse, iv
Procedure: (§2) We measured the stability of the radiolabeled IRAs in brain and blood. Following anesthetization, arterial blood and whole brain were taken at two time points (10 or 60 min) after iv injection of 3 × 10^5 cpm-1×10^6 cpm of ^125I/^14C-IRA in 0.2 ml of BSA/LR. The blood samples were allowed to clot, centrifuged at 3200 ×g for 10 min, and 50 μl of the separated serum was added to 250 μl of BSA-LR. Samples were combined with equal volume 30% TCA (300 μl), mixed, and then centrifuged for 10 min at 5400 ×g. Brains were homogenized in 800 μl of BSA-LR with a bead beater for 30 sec at 4800 rpm twice. Following centrifugation at 5400 ×g for 15 min, a portion of the resulting supernatant was added to an equal volume of 30% TCA, mixed, and then centrifuged at 5400 ×g for 10 min. The radioactivity in the resulting supernatant and pellet (Sup and Pel fractions) for serum and brain was calculated separately, and the percent of radioactivity in the precipitate was calculated using the following equation:(1) %AcidPrecip=100×Pel/Sup+Pel
(§3) To correct for degradation that might have occurred during the processing, ^125I/^14C-IRA was added to non-radioactive arterial whole blood or to whole brain and processed as above. The biological samples were corrected for degradation during processing by dividing their values by those for processing control (Pcon) values and multiplying by 100. This can sometimes result in a value greater than 100%.
(§4) Immediately after counting the radioactivity, the blood and brains from the 10 min and 6 h time points were processed as described in Section 2.5 for in vivo stability. For further comparison, data from the 1 h time point were taken from the original pharmacokinetic uptake study. The ^125I-IRA brain % acid precipitation (%AP) was divided by the ^125I-IRA serum %AP at each time point to calculate the %AP B/S ratio. This value was multiplied by the B/S ratio for each ^125I-IRA to correct for degradation over the 10 min, 1 h, or 6 h time periods. Corrected AP B/S ratios were then corrected for vascular space by subtracting the ^99mTc-Alb B/S ratio within each mouse for the 10 min and 6 h time points (AP corrected delta B/S ratio). For the 1 h time point, the average ^99mTc-Alb B/S ratio (10.03 μl/g) at 10 min across all ^125I-IRAs was used for correction. The AP corrected delta B/S ratio for each ^125I-IRA was then multiplied by the %Inj/ml within each mouse to calculate the AP corrected delta %Inj/g.

[6] = parameters: species or system male CD-1 mice; conditions: mouse, in vivo, iv; remark: listed apart in the source
Procedure: as §1
(2) %Inj/ml=100×cpm/mlserum/meancpm/Inj
The log(%Inj/ml) was plotted against time to calculate the rate of clearance from the serum. To calculate the half-time clearance in minutes, the inverse slope […] of the curve for each IRA was multiplied by 0.301 (log10[2]). The blood and brain cpm data were used for the measurement of brain influx and initial volume of distribution in brain as described in Section 2.7.

[7] = Octanol/buffer partition coefficient (lipid solubility); type: physicochemical
Procedure: We measured the lipid solubility of the IRAs, using octanol and PB. Briefly, 1 × 10^5 counts per minute (cpm) of each ^125I/^14C-IRA were added to triplicate tubes containing equal volumes PB and octanol (Sigma-Aldrich). This solution was vigorously mixed for 1 min and centrifuged at 5500 ×g for 10 min to separate the two phases. Aliquots of 100 μl were taken in duplicate from each phase, and total radioactivity was counted in a gamma counter (Wizard2, Perkin-Elmer) or beta counter (TriCarb 3110TR, Perkin-Elmer). The ratio of the cpm in the octanol phase to the cpm in the buffer phase equates to the mean partition coefficient (Pcoeff) and indicates lipophilicity. The log value for the coefficient can be either greater than unity, indicative of a lipophilic compound, or less than unity, indicative of a hydrophilic compound.

[8] = In vivo stability of 125I/14C-IRAs in blood/serum (acid precipitation); parameters: species or system male CD-1 mice; conditions: mouse, iv
Procedure: as §2, §3, §4

[9] = mouse, in vivo, iv; cited from earlier work
From the text: The unidirectional blood-to-brain influx rate (Ki) calculated from Figure 2c for all four IRAs tested is graphed with previously calculated Ki’s for other IRAs[50] in Figure 3 by rank.

[10] = mouse, in vivo, iv; cited from earlier work; remark: listed apart in the source
[11] = mouse, in vivo; cited from earlier work
Procedure: The rank order of IRAs showing significant brain uptake 1 h after iv injection with respect to AUCs is similar, but not identical to the rank order of their Ki’s (see Figures 5b and 3b). Less similar is the rank order of IRAs for uptake into brain parenchyma defined as the percent reaching the brain that was in its parenchyma vs. its capillaries. The rank order of parenchymal uptake was specifically DA4-JC (89.7%) = albiglutide (BAF) (89.4%) > DA3-CH (86%) > exenatide (84.2%) > Peptide 17 (73.2%) > lixisenatide (66.8%) > dulaglutide (BAF) (61.8%) > DA5-CH (57.6%) > Peptide 21 (43.6%) > liraglu ...

Substance	Percent of injected dose taken up per gram brain (%Inj/g), 10 min [1]	Percent of injected dose taken up per gram brain (%Inj/g), 60 min [1]	Blood to Brain Unidirectional Influx Rate (Ki) [2]	Percent in Parenchyma vs. Capillaries [3]	Whole Brain delta brain/serum ratio, Without unlabeled IRA [4]	Percentage of labeled IRA intact, Whole Brain, 10 min [5]	Percentage of labeled IRA intact, Whole Brain, 60 min [5]	Half-Time Serum Clearance (t1/2) [6]	Lipid Solubility Partition Coefficient ([7]; pH 7.5)	Log Partition Coefficient (Log P) ([7]; pH 7.5)	Percentage of labeled IRA intact, Serum, 10 min [8]	Percentage of labeled IRA intact, Serum, 60 min [8]	Percent of injected dose taken up per gram brain (%Inj/g), 15 min [1]	Probable Ki of DA5-CH [2]	Probable Vr of DA5-CH [2]	Log Partition Coefficient (Log P) ([7]; shake-flask octanol / sodium phosphate buffer pH 7.5 (PB), radiolabelled IRA, gamma or beta counting, mean ± SE, triplicate tubes)	Blood to Brain Unidirectional Influx Rate (Ki) [9]	%Inj/g by 60 min [10]	Percent reaching the brain that was in parenchyma vs. capillaries [11]
HGEGTFTSDVSSYLEEQAAKEFIAWLVKGGG [Dulaglutide (BAF)]	0.20 %Inj/g	0.33 %Inj/g	1.095 ± 0.072 µL/g/min	61.8%	17.86 ± 0.99 µL/g	58.42 ± 0.3%	37.47 ± 4.1%	6.02 min	0.0102 ± 0.0007	-1.991 ± 0.0287	84.67 ± 0.8%	39.1 ± 1.4^a %							
HGEGTFTSDVSSYLEGQAAKEFIAWLVKGR [Albiglutide (BAF)]			1.379 ± 0.086 µL/g/min	89.4%	39.3 ± 1.50 µL/g	43.35 ± 2.9%	40.9 ± 9.3%	6.14 min	0.0132 ± 0.0040	-1.916 ± 0.121	53.96 ± 0.4%	20.71 ± 1.3^a %	0.36 %Inj/g						
YXEGTFTSDYSIYLDKQAAXEFVNWLLAGGPSSGAPPPSKRRQRRKKRGY-NH2 [DA5-CH, Experimental balanced GIPR/GLP-1R dual agonist; Peptide 18 of Finan et al. with extension; custom synthesized by AnaSpec]			0.242 ± 0.128 µL/g/min	57.6%	26.25 ± 8.07 µL/g	79.7 ± 12.9%	77.61 ± 22.3%	2.03 min			83.83 ± 4.9%	49.35 ± 2.5^a %		0.24 to 2.5 µL/g/min	0 to 11.2 µL/g	-2.183 ± 0.0281			
exenatide: FDA-approved IRA tested in the earlier study (ref 50)																	0.4231 µL/g/min	0.56 %Inj/g	84.2%
